Data set [1] can be described thus: Cmax in rat at 30 mg/kg, po relative to initial plasma concentration. The data set is classed as ADME, organism-based. More on the design: dose 30 mg/kg, route oral.
The nature of data set [2]: Cmax in mouse at 30 mg/kg, po relative to initial plasma concentration. It is filed as ADME, organism-based. More on the design: dose 30 mg/kg, route oral.
Data set [3] in a line: Solubility in fasted state simulated intestinal fluid at pH 6.5 at 0.5 hrs. It is filed as physicochemical.
A short description of data set [4]: Cmax at steady state in diet-induced obese C57BL/6J mouse model plasma at 100 mg/kg, po qd dosed through CMC/Tween 80 suspension for 14 days measured at day 14. More on the design: dose 100 mg/kg, route oral. The data set is classed as ADME, organism-based.
The nature of data set [5]: Cmax at steady state in diet-induced obese C57BL/6J mouse model brain at 100 mg/kg, po qd dosed through CMC/Tween 80 suspension for 14 days measured at day 14. More on the design: dose 100 mg/kg, route oral. The data set is classed as ADME, organism-based.
Data set [6] in a line: AUC (0 to 24 hrs) in mouse at 30 mg/kg, po. It is filed as ADME, organism-based. Further details: time < 24 hr, dose 30 mg/kg, route oral. To be noted: plasma.
A short description of data set [7]: AUC at steady state in diet-induced obese C57BL/6J mouse model brain at 100 mg/kg, po qd dosed through CMC/Tween 80 suspension for 14 days measured at day 14. The data set is classed as ADME, organism-based. Further details: dose 100 mg/kg, route oral.
A short description of data set [8]: AUC (0 to 24 hrs) in rat at 30 mg/kg, po. The data set is classed as ADME, organism-based. More on the design: time < 24 hr, dose 30 mg/kg, route oral. To be noted: plasma.
Data set [9] in a line: AUC at steady state in diet-induced obese C57BL/6J mouse model plasma at 100 mg/kg, po qd dosed through CMC/Tween 80 suspension for 14 days measured at day 14. Further details: dose 100 mg/kg, route oral. The data set is classed as ADME, organism-based.
Data set [10] can be described thus: Cmax at steady state in diet-induced obese C57BL/6J mouse model plasma at 30 mg/kg, po bid dosed through micronized suspension for 14 days measured at day 14. More on the design: dose 30 mg/kg, route oral. The data set is classed as ADME, organism-based.
A short description of data set [11]: Cmax at steady state in diet-induced obese C57BL/6J mouse model brain at 30 mg/kg, po bid dosed through micronized suspension for 14 days measured at day 14. The data set is classed as ADME, organism-based. Further details: dose 30 mg/kg, route oral.
The nature of data set [12]: AUC at steady state in diet-induced obese C57BL/6J mouse model plasma at 30 mg/kg, po bid dosed through micronized suspension for 14 days measured at day 14. Further details: dose 30 mg/kg, route oral. It is filed as ADME, organism-based.
The nature of data set [13]: AUC at steady state in diet-induced obese C57BL/6J mouse model brain at 30 mg/kg, po bid dosed through micronized suspension for 14 days measured at day 14. It is filed as ADME, organism-based. Further details: dose 30 mg/kg, route oral.
The nature of data set [14]: Cmax in beagle dog at 6 mg/kg, iv. To be noted: in vivo. It is filed as ADME, organism-based, Canis lupus familiaris. More on the design: dose 6 mg/kg, route intravenous.
Data set [15] can be described thus: AUC (0 to 24 hrs) in dog at 5 mg/kg, po. The data set is classed as ADME, organism-based, Canis lupus familiaris. More on the design: time < 24 hr, dose 5 mg/kg, route oral. The conditions noted are these: plasma.
The nature of data set [16]: AUC (0 to 24 hrs) in dog at 6 mg/kg, iv. The data set is classed as ADME, organism-based, Canis lupus familiaris. More on the design: time < 24 hr, dose 6 mg/kg, route intravenous. To be noted: plasma.
Data set [17] is described as follows: Cmax in dog at 6 mg/kg, iv relative to initial plasma concentration. The data set is classed as ADME, organism-based, Canis lupus familiaris. Further details: dose 6 mg/kg, route intravenous.
The nature of data set [18]: Cmax in dog at 5 mg/kg, po relative to initial plasma concentration. The data set is classed as ADME, organism-based, Canis lupus familiaris. Further details: dose 5 mg/kg, route oral.

In brackets after ≈: the same amount, converted by molar mass.

Regarding `Cc1nc(N2CCC(O)(C3CC3)CC2)nc2ccc(NC(=O)/C=C/c3ccc(Cl)cc3)cc12`, the highest concentration (Cmax) in data set [1] was determined as 2.4 µM; in data set [2] it was 2.1 µM; in [4] it was 5.9 µM; in data set [5], 2.1 µM. The amount in solution in data set [3] (solubility at 0.5 h) came to 1.7 µM (≈ 0.787 µg/mL). The AUC(0-t) at 24 h in [6] amounted to 33.4 µM·h; in [8], 26.6 µM·h. In addition, the AUC at 336 h in data set [7] came out at 30.2 µM·h; in data set [9], 104 µM·h.
Turning to `Cc1nc(N2CCC(N3CCOCC3=O)CC2)nc2ccc(NC(=O)/C=C/c3ccc(OC(F)(F)F)cc3)cc12`, the Cmax in [10] stood at 16.5 µM; in data set [11] it was 6.3 µM. In addition, the results for the AUC at 336 h in data set [12] and in data set [13] were 312 µM·h and 104 µM·h, respectively.
On the same counts, the results for `Cc1nc(N2CCC(N3CCCC3=O)CC2)nc2ccc(NC(=O)/C=C/c3ccc(OC(F)(F)F)cc3)cc12` are 17.7 µM, 5.6 µM, 385 µM·h and 95.1 µM·h.
With `Cc1nc(N2CCC(N3CCOC3=O)CC2)nc2ccc(NC(=O)/C=C/c3ccc(OC(F)(F)F)cc3)cc12`, the Cmax in data set [10] worked out at 12.7 µM; in [11], 3.7 µM. Also, the AUC at 336 h in [12] is 284 µM·h; in [13], 67.6 µM·h.
Take `CS(=O)(=O)O.Cc1nc(N2CCC(O)(C3CC3)CC2)nc2ccc(NC(=O)/C=C/c3ccc(Cl)cc3)cc12`: the Cmax in data set [1] was 7.8 µM; in data set [14] it was 6.4 µM; in [17], 9.9 µM; in data set [18] it was 2.5 µM. The figures for the AUC(0-t) at 24 h in data set [15], in data set [16] and in data set [8] were 37.7 µM·h, 43.5 µM·h and 79.6 µM·h, respectively. In [3], this molecule came in with a solubility at 0.5 h of 11.2 µM.

These data come from ChEMBL document CHEMBL2016485, “Design and optimization of quinazoline derivatives as melanin concentrating hormone receptor 1 (MCHR1) antagonists: part 2” (Bioorg Med Chem Lett, 2012).
